The structures appear in SMILES notation.

Consider 4 compounds from article PMC12409883 (Journal of Medicinal Chemistry, 2025).

The target of one data set is RPE65 (Bos taurus, UniProt Q28175). Kind of data set: In vitro RPE65 activity assay. The settings on record: for IC50: IC50 toward RPE65, bovine RPE microsomes.
The test system of data set [1] is visual chromophore regeneration in BALB/cJ mice. Kind of data set: Extent and duration of effects on visual chromophore recovery after photobleach. To be noted: 10 mg/kg single IP, photobleach 30 min after dose, 2 h dark recovery.
The nature of data set [2]: Shelf life of ester-based VCMs. To be noted: Figure S1. It is filed as physicochemical.
In a further data set the test system is porcine liver esterase. Kind of data set: In vitro esterase susceptibility assay. To be noted: for initial rate of VCM loss: 37 °C, followed for 60 min.
Data set [3] deals with BALB/cJ mice. Description: Light-induced retinal damage in BALB/cJ mice: SLO and OCT imaging. It is filed as in vivo, mouse.
For data set [4], the system named is BALB/cJ mice. Kind of data set: Light-induced retinal damage in BALB/cJ mice: histology, ONL nuclei counts. To be noted: 10 mg/kg single IP, 15,000 lx for 8 h, p < 0.0001.
The subject of the next data set is BALBc/J mice. Kind of data set: In vivo scotopic ERG 2 h after photobleach, oral gavage dosing. The arrangement: species or system mouse. The settings on record: 10 mg/kg oral gavage, photobleach after 30 min, 2 h in the dark.
Data set [5] deals with Abca4–/–Rdh8–/– mice. Kind of data set: Photic retinal damage in Abca4–/–Rdh8–/– mice: photopic ERG. In kind it is in vivo, mouse. The settings on record: IP and oral administration, 1 week after light damage.
For data set [6], the system named is Abca4–/–Rdh8–/– mice. Kind of data set: Photic retinal damage in Abca4–/–Rdh8–/– mice. In kind it is in vivo, mouse.
Data set [7] deals with Abca4–/–Rdh8–/– mice. Description: Photic retinal damage in Abca4–/–Rdh8–/– mice: scotopic. In kind it is in vivo, mouse. To be noted: 1 week after light damage.
[8] abbreviates: 10 mg/kg single IP, 15,000 lx for 8 h, assessed after 7 days.

Sequence of RPE65 (Q28175 whole entry): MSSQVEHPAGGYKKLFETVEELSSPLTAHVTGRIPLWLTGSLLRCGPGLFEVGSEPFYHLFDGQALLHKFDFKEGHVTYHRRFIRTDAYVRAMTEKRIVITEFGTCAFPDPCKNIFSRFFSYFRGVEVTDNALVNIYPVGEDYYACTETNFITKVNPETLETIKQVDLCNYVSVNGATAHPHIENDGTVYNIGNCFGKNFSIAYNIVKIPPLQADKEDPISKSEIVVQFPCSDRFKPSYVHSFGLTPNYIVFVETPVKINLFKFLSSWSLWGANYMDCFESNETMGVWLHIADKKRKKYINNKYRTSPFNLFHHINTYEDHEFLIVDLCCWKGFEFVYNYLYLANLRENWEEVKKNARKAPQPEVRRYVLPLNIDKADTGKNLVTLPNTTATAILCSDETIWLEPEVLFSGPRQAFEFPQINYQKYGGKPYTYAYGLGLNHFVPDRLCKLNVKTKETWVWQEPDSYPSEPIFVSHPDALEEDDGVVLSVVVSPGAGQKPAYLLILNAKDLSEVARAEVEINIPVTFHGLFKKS

With `NCCC(O)c1cccc(O)c1` (stereo not shown) [Compound 4, 3-(3-Amino-1-hydroxypropyl)phenol], at RPE65 (bovine RPE microsomes), the “RPE65 inhibition in vitro” value is on record as “did not significantly inhibit RPE65”. Also, in data set [1], the “ocular retinoid pattern (atREs and 11cRAL) after photobleach” value (“ocular retinoid pattern” below) was “led to the same pattern as vehicle treatment”.

For `NCCC(O)c1cccc(OC(=O)C2CCCCC2)c1.O=CO` (stereo not shown) [Compound 5, 3-(3-Amino-1-hydroxypropyl)phenyl cyclohexanecarboxylate formate], at RPE65, the IC50 (usually the concentration needed to halve the response being measured) worked out at 164 ± 27 nM. Besides, the “stability to nonenzymatic aminolysis” value in data set [2] was “substantially less stable compared to 6 and 7”. Further, the “initial rate of VCM loss” value in the data set on porcine liver esterase came to 5.611 % compound/min. Further, the “ocular retinoid pattern” value in data set [1] is listed as “led to the same pattern as vehicle treatment”.

In turn, `CCC(CC)C(=O)Oc1cccc(C(O)CCN)c1.O=CO` (stereo not shown) [Compound 6, 3-(3-Amino-1-hydroxypropyl)phenyl 2-ethylbutanoate formate] had an IC50 on RPE65 of 69 ± 15 nM. In addition, in the data set on BALB/cJ mice [3] (setting [8]), the “OCT: ONL thickness” value is on record as “preserved the thickness of the ONL” and the “SLO retinal autofluorescent puncta” value was “rare autofluorescent puncta”. Besides, the “efficacy of a single systemic administration in the prevention of photic retinal damage” value in the data set on BALB/cJ mice [3] (10 mg/kg single IP, albino BALB/cJ mice) is “equal to that of emixustat”. In the data set with porcine liver esterase, the “slower initial rate of hydrolysis compared with compound 5” value is roughly 4 fold and the “initial rate of VCM loss” value came to 1.512 % compound/min. Further, the “Spider plot of ONL thickness from H&E sections, ANOVA” value in the data set on BALB/cJ mice [4] is recorded as “significant effect”. For the same compound, in the data set on BALBc/J mice, the “scotopic ERG a-wave after oral dosing” value was “suppressed significantly the scotopic ERG a-wave” and the “scotopic ERG b-wave after oral dosing” value is “only 7 suppressed also the b-wave amplitude”. In addition, in [1], the “ocular retinoid pattern” value is listed as “reproduced the retinoid pattern observed after emixustat treatment”.

Take `CCCC(CCC)C(=O)Oc1cccc(C(O)CCN)c1.O=CO` (stereo not shown) [Compound 7, 3-(3-Amino-1-hydroxypropyl)phenyl 2-propylpentanoate formate]: the “S-cone and M-cone b-wave amplitudes” value with Abca4–/–Rdh8–/– mice [5] was “A similar trend was observed”. The compound further gave an IC50 against RPE65 of 102 ± 12 nM. Further, in the data set with Abca4–/–Rdh8–/– mice [6] (oral 10, 20, 50 mg/kg, 10,000 lx for 30 min, assessed after 1 week), the “OCT: ONL, oral” value is “dose-dependent preservation of the ONL layer”. The “SLO autofluorescent signals, oral” value with Abca4–/–Rdh8–/– mice [6] (oral 10, 20 and 50 mg/kg, 10,000 lx for 30 min, assessed after 1 week) is recorded as “did not afford complete protection”. For the same compound, in the data set on Abca4–/–Rdh8–/– mice [6] (oral administration, OCT ONL thickness), the “oral dose from which the effect on ONL thickness was significant” value was no less than 20 mg/kg. In addition, the “OCT: ONL, IP” value in the data set on Abca4–/–Rdh8–/– mice [6] (single IP dose, 10,000 lx for 30 min, assessed after 1 week) is on record as “the ONL remained intact”. For the same compound, in the data set with porcine liver esterase, the “slower initial rate of hydrolysis compared with compound 5” value is roughly 13 fold and the “initial rate of VCM loss” value is listed as 0.440 % compound/min. For the same compound, the “rod ERG responses, IP” value in the data set on Abca4–/–Rdh8–/– mice [7] (IP administration) is reported as “had a significant effect in maintaining rod function”. Further, in the data set with Abca4–/–Rdh8–/– mice [7] (oral 10, 20, 50 mg/kg), the “rod ERG b-wave amplitudes, oral” value was “dose-dependent preservation of rod ERG b-wave amplitudes”. Moreover, the “scotopic ERG a-wave after oral dosing” value with BALBc/J mice was “suppressed significantly the scotopic ERG a-wave”. For the same compound, in [1], the “ocular retinoid pattern” value is listed as “reproduced the retinoid pattern observed after emixustat treatment”.
